Here are results for two compounds from US20110319416A1, “Subunit Selective NMDA Receptor Antagonists For The Treatment Of Neurological Conditions” (EMORY UNIVERSITY, priority 2009, published 2011).

In assay [1] the target is T1, NR2D (Homo sapiens, UniProt O15399+Q05586). The experiment in a line: Literature equilibrium binding displacement, NR2D (Table 1).
Assay [2] has as its target T2, NR2B (Homo sapiens, UniProt Q05586+Q13224). The experiment in a line: Literature equilibrium binding displacement, NR2B (Table 1).
Assay [3] concerns the target T2, NR2B. The conditions noted are these: Ki estimated from equilibrium binding displacement IC50 at a single concentration; low affinity site; read-out: 2B (μM) Ki*; cited from earlier work.
The target of the next assay is NR2C (Homo sapiens, UniProt Q05586+Q14957). The conditions noted are these: Ki estimated from equilibrium binding displacement IC50 at a single concentration; low affinity site; read-out: 2C (μM) Ki*; cited from earlier work.
The target in assay [4] is T3, NR2A (Homo sapiens, UniProt Q05586+Q12879). The conditions noted are these: Ki estimated from equilibrium binding displacement IC50 at a single concentration; low affinity site; read-out: 2A (μM) Ki*; cited from earlier work.
T3 sequence (Q12879 23-1464, other chains not shown): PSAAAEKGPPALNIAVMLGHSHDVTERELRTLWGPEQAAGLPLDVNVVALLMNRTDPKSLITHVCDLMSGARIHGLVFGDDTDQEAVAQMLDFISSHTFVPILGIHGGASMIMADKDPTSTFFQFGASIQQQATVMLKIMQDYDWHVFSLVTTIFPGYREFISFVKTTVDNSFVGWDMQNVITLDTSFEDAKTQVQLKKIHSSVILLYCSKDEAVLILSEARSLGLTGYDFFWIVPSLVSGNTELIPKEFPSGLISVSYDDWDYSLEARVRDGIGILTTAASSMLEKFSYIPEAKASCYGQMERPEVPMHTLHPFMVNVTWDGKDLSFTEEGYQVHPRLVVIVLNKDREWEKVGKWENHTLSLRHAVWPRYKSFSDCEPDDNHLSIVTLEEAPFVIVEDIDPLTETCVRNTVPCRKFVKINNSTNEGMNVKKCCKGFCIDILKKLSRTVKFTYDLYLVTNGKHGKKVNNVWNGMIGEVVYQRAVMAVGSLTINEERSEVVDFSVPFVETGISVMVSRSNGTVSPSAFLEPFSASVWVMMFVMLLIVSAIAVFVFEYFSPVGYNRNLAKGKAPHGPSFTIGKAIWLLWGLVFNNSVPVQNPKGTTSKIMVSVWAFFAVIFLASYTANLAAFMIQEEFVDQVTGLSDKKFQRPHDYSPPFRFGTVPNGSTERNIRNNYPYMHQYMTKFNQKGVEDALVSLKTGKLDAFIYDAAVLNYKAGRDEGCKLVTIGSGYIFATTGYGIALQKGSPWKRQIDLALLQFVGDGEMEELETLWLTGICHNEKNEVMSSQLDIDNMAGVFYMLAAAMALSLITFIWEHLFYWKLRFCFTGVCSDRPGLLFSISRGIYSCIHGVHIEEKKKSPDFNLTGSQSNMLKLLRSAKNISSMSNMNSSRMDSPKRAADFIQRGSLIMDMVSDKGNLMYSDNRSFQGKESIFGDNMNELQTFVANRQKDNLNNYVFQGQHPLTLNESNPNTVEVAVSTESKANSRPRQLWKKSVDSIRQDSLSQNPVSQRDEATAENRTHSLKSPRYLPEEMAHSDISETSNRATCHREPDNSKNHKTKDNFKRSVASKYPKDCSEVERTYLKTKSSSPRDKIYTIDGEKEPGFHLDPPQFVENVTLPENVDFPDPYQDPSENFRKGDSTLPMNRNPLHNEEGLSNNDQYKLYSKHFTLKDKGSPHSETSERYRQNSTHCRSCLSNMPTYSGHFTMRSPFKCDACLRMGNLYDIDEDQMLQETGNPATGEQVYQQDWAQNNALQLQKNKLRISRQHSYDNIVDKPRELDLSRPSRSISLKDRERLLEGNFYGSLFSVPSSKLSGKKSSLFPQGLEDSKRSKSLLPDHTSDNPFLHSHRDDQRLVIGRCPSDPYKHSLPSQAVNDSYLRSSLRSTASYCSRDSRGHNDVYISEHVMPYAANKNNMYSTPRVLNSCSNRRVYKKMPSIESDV
The target of assay [5] is T1, NR2D. The conditions noted are these: Ki estimated from equilibrium binding displacement IC50 at a single concentration; low affinity site; read-out: 2D (μM) Ki*; cited from earlier work.
The target in assay [6] is T3, NR2A. The conditions noted are these: cited from earlier work.
Assay [7] deals with T2, NR2B.
The target of assay [8] is T2, NR2B. To be noted: Kb determined by Schild analysis; read-out: 2B (μM) Kb; cited from earlier work.

SMILES strings stand for the structures. Marks after values point to notes of the source that are not given here.

T2 sequence (Q13224 27-1484, other chains not shown): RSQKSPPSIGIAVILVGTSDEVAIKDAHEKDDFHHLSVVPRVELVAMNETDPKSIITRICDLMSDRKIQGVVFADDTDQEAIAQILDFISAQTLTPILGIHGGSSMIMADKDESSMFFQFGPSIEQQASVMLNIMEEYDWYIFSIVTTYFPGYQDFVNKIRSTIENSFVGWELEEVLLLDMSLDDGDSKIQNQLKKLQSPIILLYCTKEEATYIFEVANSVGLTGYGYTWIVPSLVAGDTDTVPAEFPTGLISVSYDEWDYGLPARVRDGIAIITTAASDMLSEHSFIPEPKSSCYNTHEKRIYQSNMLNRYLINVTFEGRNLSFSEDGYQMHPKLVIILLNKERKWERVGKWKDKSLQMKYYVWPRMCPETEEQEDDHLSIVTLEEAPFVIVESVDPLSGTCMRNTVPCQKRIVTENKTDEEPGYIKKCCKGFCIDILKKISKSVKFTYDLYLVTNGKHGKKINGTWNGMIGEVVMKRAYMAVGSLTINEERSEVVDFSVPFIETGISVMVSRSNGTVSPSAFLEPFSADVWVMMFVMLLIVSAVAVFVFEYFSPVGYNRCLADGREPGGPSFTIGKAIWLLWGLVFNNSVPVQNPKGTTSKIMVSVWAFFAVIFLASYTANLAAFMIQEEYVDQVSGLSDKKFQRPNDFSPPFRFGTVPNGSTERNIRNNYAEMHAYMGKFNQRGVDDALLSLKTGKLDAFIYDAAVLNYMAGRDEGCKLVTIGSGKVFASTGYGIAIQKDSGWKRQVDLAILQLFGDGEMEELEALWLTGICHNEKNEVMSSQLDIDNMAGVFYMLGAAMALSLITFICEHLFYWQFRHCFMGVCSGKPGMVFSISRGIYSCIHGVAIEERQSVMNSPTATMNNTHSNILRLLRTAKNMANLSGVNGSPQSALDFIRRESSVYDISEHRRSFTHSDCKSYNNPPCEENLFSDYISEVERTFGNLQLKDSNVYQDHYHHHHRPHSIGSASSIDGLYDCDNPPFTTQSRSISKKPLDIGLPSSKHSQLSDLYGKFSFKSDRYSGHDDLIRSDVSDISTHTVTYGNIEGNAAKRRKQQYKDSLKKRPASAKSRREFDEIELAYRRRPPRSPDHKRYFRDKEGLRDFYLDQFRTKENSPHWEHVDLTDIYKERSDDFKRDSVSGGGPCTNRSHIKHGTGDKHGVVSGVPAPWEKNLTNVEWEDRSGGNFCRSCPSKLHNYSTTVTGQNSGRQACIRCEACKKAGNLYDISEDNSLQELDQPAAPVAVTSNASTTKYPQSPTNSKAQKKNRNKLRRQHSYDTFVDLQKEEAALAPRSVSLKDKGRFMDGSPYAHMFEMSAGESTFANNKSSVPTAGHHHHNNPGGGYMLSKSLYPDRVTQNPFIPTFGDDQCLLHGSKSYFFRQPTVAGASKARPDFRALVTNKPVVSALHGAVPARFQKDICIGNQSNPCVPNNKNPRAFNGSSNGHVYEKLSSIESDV
T1 sequence (O15399 28-1336, other chains not shown): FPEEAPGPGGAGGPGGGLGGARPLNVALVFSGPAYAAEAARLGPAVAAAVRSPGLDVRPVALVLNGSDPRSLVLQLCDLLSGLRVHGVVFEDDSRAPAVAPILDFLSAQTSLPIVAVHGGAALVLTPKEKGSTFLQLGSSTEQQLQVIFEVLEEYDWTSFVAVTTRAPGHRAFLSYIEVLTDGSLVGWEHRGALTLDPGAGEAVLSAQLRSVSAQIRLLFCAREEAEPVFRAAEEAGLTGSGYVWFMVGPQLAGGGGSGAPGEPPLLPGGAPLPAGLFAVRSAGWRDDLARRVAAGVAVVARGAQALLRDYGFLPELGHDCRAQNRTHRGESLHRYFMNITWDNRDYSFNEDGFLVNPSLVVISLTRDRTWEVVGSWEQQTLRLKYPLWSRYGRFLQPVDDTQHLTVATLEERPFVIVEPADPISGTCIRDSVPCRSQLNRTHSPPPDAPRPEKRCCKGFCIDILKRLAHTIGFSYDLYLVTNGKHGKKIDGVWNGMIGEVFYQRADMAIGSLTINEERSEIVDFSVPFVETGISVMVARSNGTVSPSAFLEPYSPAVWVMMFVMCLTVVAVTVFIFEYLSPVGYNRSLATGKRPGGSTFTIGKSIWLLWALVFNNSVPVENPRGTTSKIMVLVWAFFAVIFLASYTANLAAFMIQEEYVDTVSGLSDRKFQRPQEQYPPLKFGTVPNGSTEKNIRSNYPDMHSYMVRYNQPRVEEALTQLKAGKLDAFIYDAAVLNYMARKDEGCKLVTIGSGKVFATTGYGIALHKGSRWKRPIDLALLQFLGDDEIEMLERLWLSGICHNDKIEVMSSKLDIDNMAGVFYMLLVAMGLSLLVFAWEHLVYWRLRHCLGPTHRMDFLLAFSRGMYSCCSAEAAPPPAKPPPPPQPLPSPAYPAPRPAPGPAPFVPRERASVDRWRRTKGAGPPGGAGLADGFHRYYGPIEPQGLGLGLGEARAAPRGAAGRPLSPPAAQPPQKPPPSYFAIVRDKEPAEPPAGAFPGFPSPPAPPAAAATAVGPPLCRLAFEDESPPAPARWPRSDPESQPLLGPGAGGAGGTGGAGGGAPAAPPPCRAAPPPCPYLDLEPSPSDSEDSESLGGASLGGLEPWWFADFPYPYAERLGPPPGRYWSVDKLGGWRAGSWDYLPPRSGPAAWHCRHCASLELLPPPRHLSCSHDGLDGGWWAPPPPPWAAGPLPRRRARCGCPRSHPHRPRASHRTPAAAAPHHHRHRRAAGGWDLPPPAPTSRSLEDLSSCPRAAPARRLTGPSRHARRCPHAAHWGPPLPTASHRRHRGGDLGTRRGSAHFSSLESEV

Regarding `O=C(/C=C/c1c(C(=O)[O-])[nH]c2cc(Cl)cc(Cl)c12)Nc1ccccc1.[Na+]` [GV150, 526A], the “2A/2D (ratio of Ki*)” value on NR2D [1] was 1.6*. In addition, the “2A/2B (ratio of Ki*)” value on NR2B [2] was 1.0*. For the same compound, the potency estimated from few doses was 0.08 µM on NR2B [3], 0.11 µM at NR2C, 0.08 µM on NR2A [4] and 0.05 µM on NR2D [5].
Turning to `C[C@H](N[C@@H](c1cccc2[nH]c(=O)c(=O)[nH]c12)P(=O)(O)O)c1ccc(Br)cc1` [NVP-AAM07], the Kb on NR2A [6] (Kb determined by Schild analysis, read-out: 2A (μM) Kb) was 15.2 µM; on NR2B [8], 78 µM. On NR2A [6] (Schild analysis (Kb)), the “selectivity for NR2A over NR2B” value is on record as 5 fold. Further, at NR2B [7], the “2A/2B (ratio of Kb)” value is 0.2.
